Active and inactive are the calls of the source.
Legend:
[1] = test system: HEK293; assay: EBV LMP1 TES2 canonical NF-kB signalling blockers – cell-based, HEK293, luciferase, cherry-pick, dose response (AID 588343); format: functional; details: Homo sapiens
[2] = target: Dual specificity tyrosine-phosphorylation-regulated kinase 1A (Rattus norvegicus, UniProt Q63470); format: biochemical, Homo sapiens
[3] = blockers of HIV-1 ZM109 envelope-driven cell-cell fusion – HeLa effector, CEM target cells, luciferase, cherry-pick, dose response (AID 652058); format: functional, cell-based;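 further: luciferase signal from HIV-1 Env mediated cell-cell fusion of effector and target cells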
[4] = blockers of HIV-1 envelope-mediated cell-cell fusion – cherry-pick, dose response (AID 652057); format: functional, cell-based
[5] = off-target signal loss in HeLa-CEM21 co-culture – HeLa F-luc CTL cells, cherry-picked, counter-screen for HIV-1 Env fusion inhibitor project, dose response (AID 652040); format: functional, cell-based;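 further: potency for signal decrease marking cytotoxic or nonspecific inhibition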
[6] = HIV-1 AD8 envelope cell-cell fusion blockers – cherry-pick, dose response (AID 652062); format: functional, cell-based;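 further: luciferase signal from cell-cell fusion driven by HIV-1 clade B AD8 Env; potency is for inhibitors of fusion seen as a drop in luminescence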
[7] = test system: HeLa; assay: ATP-based viability loss in HeLa cells – cell-based, CellTiter-Glo luminescence, cherry-pick samples, cytotoxicity control for MITF activator project, dose response (AID 540259); format: functional; details: Homo sapiens
[8] = target: T1, Sentrin-specific protease 6 (Homo sapiens, UniProt Q9GZR1); format: functional;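 further: Luminescence-based dose-response confirmatory assay of SENP6 inhibition, following up an ultra-high-throughput screen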
T1 sequence (Q9GZR1 whole entry): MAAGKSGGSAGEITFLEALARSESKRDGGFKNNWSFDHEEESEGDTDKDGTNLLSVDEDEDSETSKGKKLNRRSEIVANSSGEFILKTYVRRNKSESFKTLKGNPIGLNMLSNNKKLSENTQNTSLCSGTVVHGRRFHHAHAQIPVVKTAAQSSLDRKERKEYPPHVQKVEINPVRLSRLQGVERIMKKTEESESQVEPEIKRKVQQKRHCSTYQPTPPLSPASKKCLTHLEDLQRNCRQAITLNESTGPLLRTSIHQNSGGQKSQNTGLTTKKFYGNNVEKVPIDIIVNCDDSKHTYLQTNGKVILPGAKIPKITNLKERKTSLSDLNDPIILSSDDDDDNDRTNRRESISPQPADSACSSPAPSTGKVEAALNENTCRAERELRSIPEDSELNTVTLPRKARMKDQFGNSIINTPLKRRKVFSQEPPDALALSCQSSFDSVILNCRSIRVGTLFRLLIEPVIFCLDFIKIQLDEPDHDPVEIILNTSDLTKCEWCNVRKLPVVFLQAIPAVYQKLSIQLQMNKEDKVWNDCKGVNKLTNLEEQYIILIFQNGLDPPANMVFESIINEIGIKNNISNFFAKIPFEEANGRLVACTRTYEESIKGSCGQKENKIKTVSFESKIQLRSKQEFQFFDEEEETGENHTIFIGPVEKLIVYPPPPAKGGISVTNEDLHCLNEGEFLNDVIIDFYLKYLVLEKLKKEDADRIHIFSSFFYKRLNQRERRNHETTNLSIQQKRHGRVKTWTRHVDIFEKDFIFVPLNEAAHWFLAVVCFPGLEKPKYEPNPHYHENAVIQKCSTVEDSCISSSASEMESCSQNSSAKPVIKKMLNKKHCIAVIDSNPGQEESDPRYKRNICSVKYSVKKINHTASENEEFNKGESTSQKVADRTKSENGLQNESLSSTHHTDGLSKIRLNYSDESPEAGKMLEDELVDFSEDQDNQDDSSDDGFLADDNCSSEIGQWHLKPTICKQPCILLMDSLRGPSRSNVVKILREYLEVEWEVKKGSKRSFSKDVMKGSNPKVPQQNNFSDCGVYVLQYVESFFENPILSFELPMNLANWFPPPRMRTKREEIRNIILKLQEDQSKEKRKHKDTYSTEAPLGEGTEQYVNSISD

[9] = target: T2, Caspase-3 (Homo sapiens, UniProt P42574); format: functional;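 further: Dose-response selectivity test against caspase-3 for candidate inhibitors of sentrin-specific proteases (SENPs)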
T2 sequence (P42574 whole entry): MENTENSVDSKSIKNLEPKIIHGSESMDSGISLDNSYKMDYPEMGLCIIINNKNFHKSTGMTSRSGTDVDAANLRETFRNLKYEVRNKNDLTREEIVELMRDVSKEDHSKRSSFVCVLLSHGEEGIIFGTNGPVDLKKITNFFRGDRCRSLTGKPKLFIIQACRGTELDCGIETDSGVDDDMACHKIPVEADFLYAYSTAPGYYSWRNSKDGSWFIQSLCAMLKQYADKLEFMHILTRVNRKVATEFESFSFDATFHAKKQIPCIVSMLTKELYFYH

[10] = target: T3, Sentrin-specific protease 8 (Homo sapiens, UniProt Q96LD8); format: functional;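 further: luminescence read-out of SENP8 inhibition, dose-response confirmation following an ultra-high-throughput screen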
T3 sequence (Q96LD8 whole entry): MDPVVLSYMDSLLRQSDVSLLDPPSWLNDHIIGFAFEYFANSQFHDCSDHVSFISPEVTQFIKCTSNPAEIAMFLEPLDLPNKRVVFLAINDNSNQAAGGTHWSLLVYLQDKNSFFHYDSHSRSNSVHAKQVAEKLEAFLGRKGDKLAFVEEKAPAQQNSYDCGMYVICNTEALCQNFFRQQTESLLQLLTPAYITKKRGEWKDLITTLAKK

[11] = target: T4, Sentrin-specific protease 7 (Homo sapiens, UniProt Q9BQF6); format: functional;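 further: Luminescence-based dose-response confirmation of ultra-high-throughput screening hits, measuring inhibition of SENP7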
T4 sequence (Q9BQF6 whole entry): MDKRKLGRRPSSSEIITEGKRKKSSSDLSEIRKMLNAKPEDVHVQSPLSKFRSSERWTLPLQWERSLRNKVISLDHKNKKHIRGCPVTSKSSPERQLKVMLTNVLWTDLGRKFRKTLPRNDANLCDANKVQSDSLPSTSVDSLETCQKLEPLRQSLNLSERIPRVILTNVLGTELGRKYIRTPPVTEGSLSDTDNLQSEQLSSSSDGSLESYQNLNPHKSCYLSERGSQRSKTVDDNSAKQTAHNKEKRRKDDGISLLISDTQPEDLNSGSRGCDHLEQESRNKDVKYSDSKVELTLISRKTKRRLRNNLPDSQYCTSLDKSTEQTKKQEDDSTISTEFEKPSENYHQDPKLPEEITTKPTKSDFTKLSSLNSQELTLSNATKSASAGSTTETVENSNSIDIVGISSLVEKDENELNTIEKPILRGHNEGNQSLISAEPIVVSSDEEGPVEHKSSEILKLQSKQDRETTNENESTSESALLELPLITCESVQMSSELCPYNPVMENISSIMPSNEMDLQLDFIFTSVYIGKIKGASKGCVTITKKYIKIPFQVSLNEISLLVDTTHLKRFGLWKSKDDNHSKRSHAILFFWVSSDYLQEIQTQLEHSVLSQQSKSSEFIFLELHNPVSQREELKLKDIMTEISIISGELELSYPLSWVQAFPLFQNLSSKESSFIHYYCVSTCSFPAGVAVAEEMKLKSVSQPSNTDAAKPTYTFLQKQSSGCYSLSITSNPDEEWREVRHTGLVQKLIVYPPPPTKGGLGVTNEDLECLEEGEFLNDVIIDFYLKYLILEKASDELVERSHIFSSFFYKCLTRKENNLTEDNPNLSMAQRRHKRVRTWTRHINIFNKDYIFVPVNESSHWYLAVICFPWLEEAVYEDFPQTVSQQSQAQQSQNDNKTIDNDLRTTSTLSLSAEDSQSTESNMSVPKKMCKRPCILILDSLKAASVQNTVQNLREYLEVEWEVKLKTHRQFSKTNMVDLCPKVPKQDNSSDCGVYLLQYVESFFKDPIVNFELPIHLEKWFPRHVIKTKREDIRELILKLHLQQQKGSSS

[12] = target: T5, Rac GTPase-activating protein 1 (Homo sapiens, UniProt Q9H0H5); assay: blockers of MgcRacGAP-driven Rac1 GTP hydrolysis – biochemical, ADP Hunter fluorescence, primary and confirmatory, confirmation (AID 624330); format: functional
T5 sequence (Q9H0H5 whole entry): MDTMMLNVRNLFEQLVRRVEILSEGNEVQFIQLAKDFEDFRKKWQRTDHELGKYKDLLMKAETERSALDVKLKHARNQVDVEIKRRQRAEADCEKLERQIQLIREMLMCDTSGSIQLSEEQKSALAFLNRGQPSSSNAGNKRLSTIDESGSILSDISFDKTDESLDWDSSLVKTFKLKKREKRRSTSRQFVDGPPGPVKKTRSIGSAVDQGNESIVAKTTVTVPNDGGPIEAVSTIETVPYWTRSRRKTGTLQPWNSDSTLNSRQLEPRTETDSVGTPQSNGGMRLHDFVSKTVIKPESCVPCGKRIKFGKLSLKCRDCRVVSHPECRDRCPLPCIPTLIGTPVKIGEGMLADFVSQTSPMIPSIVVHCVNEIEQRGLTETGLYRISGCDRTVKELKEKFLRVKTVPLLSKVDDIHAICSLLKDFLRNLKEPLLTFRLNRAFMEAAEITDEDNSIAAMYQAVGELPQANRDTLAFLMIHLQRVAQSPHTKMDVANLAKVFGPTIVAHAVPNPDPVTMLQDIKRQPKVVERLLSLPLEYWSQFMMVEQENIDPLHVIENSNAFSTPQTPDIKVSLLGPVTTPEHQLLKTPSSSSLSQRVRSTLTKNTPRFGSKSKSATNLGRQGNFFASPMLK

[13] = target: T6, Adenosylmethionine-8-amino-7-oxononanoate aminotransferase (Mycobacterium tuberculosis, UniProt P9WQ81); assay: Mycobacterium tuberculosis BioA enzyme inhibitor Measured in Biochemical System Using Plate Reader - 2163-02_Inhibitor_Dose_CherryPick_Activity.; format: functional, Mycobacterium tuberculosis UT205
T6 sequence (P9WQ81 whole entry): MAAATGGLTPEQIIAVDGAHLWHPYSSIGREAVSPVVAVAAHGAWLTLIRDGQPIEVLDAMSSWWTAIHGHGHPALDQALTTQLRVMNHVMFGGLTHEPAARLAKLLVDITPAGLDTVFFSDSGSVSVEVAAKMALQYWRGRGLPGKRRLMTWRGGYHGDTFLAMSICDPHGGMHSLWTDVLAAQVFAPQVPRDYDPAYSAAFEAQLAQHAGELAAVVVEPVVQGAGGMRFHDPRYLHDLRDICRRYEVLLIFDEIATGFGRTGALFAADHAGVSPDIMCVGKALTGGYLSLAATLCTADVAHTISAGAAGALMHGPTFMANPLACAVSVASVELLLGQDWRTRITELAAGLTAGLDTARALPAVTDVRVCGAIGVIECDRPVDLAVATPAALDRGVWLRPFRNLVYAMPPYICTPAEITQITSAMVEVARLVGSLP

[14] = target: T7, Low molecular weight phosphotyrosine protein phosphatase (Homo sapiens, UniProt P24666); format: functional; details: read-out: IC50_Mean;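 further: Dose-response confirmation assay measuring inhibition of LMPTP enzyme activity by fluorescence intensity read-out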
T7 sequence (P24666 whole entry): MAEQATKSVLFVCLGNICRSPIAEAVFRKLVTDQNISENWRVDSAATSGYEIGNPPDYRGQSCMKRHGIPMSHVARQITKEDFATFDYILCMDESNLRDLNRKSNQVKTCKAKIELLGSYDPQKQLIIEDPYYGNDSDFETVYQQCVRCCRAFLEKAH

## O=C(CSc1nnc(NC(=O)c2ccc3c(c2)OCO3)s1)NCc1ccco1
[1]
  AC50: 2.65 µM (active)

## Fc1ccc(NC(S)=Nc2cccc3cnccc23)cc1
[2]
  AC50: 9.44 µM (active)

## O=C(CCCC(=O)N(c1ccc2c(c1)OCCO2)C(C(=O)NC1CCCCC1)c1ccc(F)cc1)Nc1ccccn1 (configuration not stated)
[3]
  AC50: 4.52 µM (active)
[4]
  AC50: 6.87 µM (active)
[5]
  AC50: 42.5 µM (active)
[6]
  AC50: 31.9 µM (active)

## Cc1ccc(O)c(C2=Nc3ccccc3C2(C)C)c1
[7]
  AC50: 31.6 µM (active)
[8]
  IC50: 18.2 µM (active)
[9]
  IC50: 22.5 µM (active)
[10]
  IC50: 26.9 µM (active)
[11]
  IC50: 4.9 µM (active)

## Cn1c(C(=O)NCC2CCCO2)cc2c(=O)n(C)c3ccccc3c21 (configuration not stated)
[2]
  AC50: 13.4 µM (active)

## CCOc1cc(-c2nc3ccccc3s2)ccc1O
[2]
  AC50: 5.92 µM (active)
[12]
  IC50: 33.4 µM (active)

## Cc1nc2ccccc2nc(C)c1=NOCc1cccc(Cl)c1
[3]
  AC50: 13 µM (active)
[4]
  AC50: 10.3 µM (active)
[5]
  AC50: 11.6 µM (active)
[6]
  AC50: 0.421 µM (active)

## COc1ccc(F)cc1C(=O)C1CCCN(C(=O)c2ccc(C(C)=O)s2)C1 (configuration not stated)
[13]
  AC50: 1.06 µM (active)

## C[C@@]12C(=O)N(Cc3ccco3)CC(=O)N1[C@H]1c3ccccc3OC[C@@H]1[C@@H]2c1ccccc1
[3]
  AC50: 3.09 µM (active)
[4]
  AC50: 3.14 µM (active)
[5]
  AC50: 12.4 µM (active)

## CC(=O)c1c(C)[nH]c(C(=O)Nc2cccnc2)c1C
[13]
  AC50: 3 µM (active)

## C[C@@H]1CN([C@H](C)CO)C(=O)c2cc(C#Cc3cccnc3)cnc2O[C@H]1CN(C)S(C)(=O)=O
[13]
  AC50: 3.35 µM (active)

## CN(C)C(=O)C[C@@H]1C[C@H]2c3cc(NS(=O)(=O)c4ccc(F)cc4)ccc3O[C@H]2[C@H](CO)O1
[6]
  AC50: 3.41 µM (active)

## COc1ccc(C(=O)Nc2cccc(C(=O)N/N=C/c3ccc(OC)cc3OC)c2)cc1
[1]
  AC50: 1.79 µM (active)

## CN(C)c1ccc(/C=N/NC(=O)c2nnn(-c3nonc3N)c2COc2ccc(F)cc2)cc1
[14]
  IC50: 12 µM (active)
